From publication PMC11605156, “Triterpenoids from Ganoderma lucidum inhibit cytochrome P450 enzymes interfering with the metabolic process of specific clinical drugs” (Frontiers in Pharmacology, 2024)

Legend:
[1] = target: T1, CYP1A2 (Homo sapiens, UniProt P05177); test: CYP1A2 inhibition, probe/drug metabolism in human liver microsomes (LC-MS/MS); conditions: for activity at 30 min: human, human liver microsomes, pH 7.4, probe phenacetin 40 μM, Residual activity (%) CYP1A2, HLM 0.5 mg/mL; for IC50: IC50 against CYP 1A2, substrate phenacetin 40 μM, HLM
T1 sequence (P05177 1-516): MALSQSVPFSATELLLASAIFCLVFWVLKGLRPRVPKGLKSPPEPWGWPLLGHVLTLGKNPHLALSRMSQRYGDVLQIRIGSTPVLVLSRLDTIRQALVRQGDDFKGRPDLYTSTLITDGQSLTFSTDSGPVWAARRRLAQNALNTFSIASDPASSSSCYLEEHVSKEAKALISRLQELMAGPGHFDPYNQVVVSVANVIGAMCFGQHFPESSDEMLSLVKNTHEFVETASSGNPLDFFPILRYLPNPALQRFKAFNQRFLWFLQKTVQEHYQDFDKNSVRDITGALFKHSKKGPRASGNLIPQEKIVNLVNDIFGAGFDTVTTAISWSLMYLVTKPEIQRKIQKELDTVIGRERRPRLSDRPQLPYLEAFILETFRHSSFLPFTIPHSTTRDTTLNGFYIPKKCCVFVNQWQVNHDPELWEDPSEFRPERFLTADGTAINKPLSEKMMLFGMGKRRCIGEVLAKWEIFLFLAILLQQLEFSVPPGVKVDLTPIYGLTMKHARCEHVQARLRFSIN
Protocol: (§1) The total volume of the in vitro metabolic incubation system is 200 μL. The probe substrate concentration in the system is shown in Supplementary Table S1. […] The reaction sample was preheated in a constant temperature mixer at 37°C. Then NADP^+ was added to the system to initiate the reaction. The reaction time is 30 min, and 100 μL acetonitrile will be added on time to quickly terminate the reaction, followed by centrifugation at 4°C and 20,000 g for 20 min. The supernatant was analyzed using liquid chromatography tandem mass spectrometry (LC-MS/MS), and the activity of CYP enzymes was evaluated by the generation of probe metabolites. The mass spectrometry information of probe substrates is shown in Supplementary Table S3.
(§2) The isolated triterpenoids (1–66) were used to establish a compounds library. The inhibitory effects of 66 triterpenoids from G. lucidum on seven subtypes of CYP enzymes (CYP1A2, 2A6, 2D6, 2B6, 2C9, 2C19, 3A4) were evaluated followed the above-mentioned experimental procedures.
(§3) For 16 clinical drugs metabolized by CYP enzymes, potential DDI studies were conducted on triterpenoids (6, 25) of G. lucidum, and IC50 values were measured.
(§4) Clinical drugs: Phenacetin, melatonin, clozapine and riluzole are metabolized by CYP1A2. Bupropion, artemisinin, efavirenz and sertraline are metabolized by CYP2B6. Diclofenac, valsartan, glimepiride and glibenclamide are metabolized by CYP2C9. Midazolam, imatinib, simvastatin and diltiazem are metabolized by CYP3A4.
(§5) Table S1. The information of probes for CYPs activity assay
(§6) Table S2. Information of clinical drugs

[2] = target: CYP2D6 (Homo sapiens, UniProt P10635); test: CYP2D6 inhibition, dextromethorphan probe in human liver microsomes; conditions: for activity at 30 min: human, human liver microsomes, pH 7.4, probe dextromethorphan 5 μM, Residual activity (%) CYP2D6, HLM 0.5 mg/mL
Protocol: as §1, §2, §5

[3] = target: CYP3A4 (Homo sapiens, UniProt P08684); test: CYP3A4 inhibition, probe/drug metabolism in human liver microsomes; conditions: midazolam 5 μM, 30 min; for activity at 30 min: human, human liver microsomes, pH 7.4, probe midazolam 5 μM, Residual activity (%) CYP3A4, HLM 0.5 mg/mL
Protocol: as §1, §2, §3, §4, §5, §6

[4] = target: T2, CYP2A6 (Homo sapiens, UniProt P11509); test: CYP2A6 inhibition, coumarin probe in human liver microsomes; conditions: for activity at 30 min: human, human liver microsomes, pH 7.4, probe coumarin 2 μM, Residual activity (%) CYP2A6, HLM 0.5 mg/mL
T2 sequence (P11509 1-494): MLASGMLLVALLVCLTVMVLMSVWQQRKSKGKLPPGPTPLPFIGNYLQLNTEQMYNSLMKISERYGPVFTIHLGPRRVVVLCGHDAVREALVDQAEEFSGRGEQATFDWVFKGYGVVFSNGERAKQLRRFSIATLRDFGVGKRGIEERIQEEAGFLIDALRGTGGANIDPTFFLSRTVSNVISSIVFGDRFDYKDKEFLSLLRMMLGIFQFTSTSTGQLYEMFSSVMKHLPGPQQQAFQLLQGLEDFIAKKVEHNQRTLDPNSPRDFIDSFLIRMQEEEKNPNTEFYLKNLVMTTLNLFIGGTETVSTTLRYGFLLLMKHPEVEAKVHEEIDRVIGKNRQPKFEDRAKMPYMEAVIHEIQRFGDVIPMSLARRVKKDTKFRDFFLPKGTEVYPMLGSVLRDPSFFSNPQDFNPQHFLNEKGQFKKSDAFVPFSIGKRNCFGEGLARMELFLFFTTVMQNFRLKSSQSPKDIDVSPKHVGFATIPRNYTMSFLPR
Protocol: as §1, §2, §5

[5] = target: T3, CYP2B6 (Homo sapiens, UniProt P20813); test: CYP2B6 inhibition, probe/drug metabolism in human liver microsomes; conditions: bupropion 75 μM, 30 min; for activity at 30 min: human, human liver microsomes, pH 7.4, probe bupropion 75 μM, Residual activity (%) CYP2B6, HLM 0.5 mg/mL
T3 sequence (P20813 1-491): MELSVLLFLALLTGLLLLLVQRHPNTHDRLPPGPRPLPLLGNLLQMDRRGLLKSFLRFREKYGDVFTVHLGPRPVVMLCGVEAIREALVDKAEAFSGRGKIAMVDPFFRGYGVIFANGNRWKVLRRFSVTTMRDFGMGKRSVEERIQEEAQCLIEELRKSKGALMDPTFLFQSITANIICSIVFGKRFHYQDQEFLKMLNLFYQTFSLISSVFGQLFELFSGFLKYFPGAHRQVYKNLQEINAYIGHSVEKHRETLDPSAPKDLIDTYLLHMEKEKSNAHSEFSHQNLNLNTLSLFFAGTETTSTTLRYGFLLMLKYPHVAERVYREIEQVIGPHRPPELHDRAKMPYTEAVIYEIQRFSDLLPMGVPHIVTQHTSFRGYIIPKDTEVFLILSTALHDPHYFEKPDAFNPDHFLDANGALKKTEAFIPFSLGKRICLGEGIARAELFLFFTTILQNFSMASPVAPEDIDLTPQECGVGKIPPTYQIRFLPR
Protocol: as §1, §2, §3, §4, §5, §6

[6] = target: CYP2C9 (Homo sapiens, UniProt P11712); test: CYP2C9 inhibition, probe/drug metabolism in human liver microsomes; conditions: diclofenac 4 μM, 30 min; for activity at 30 min: human, human liver microsomes, pH 7.4, probe diclofenac 4 μM, Residual activity (%) CYP2C9, HLM 0.5 mg/mL
Protocol: as §1, §2, §3, §4, §5, §6

[7] = target: CYP2C19 (Homo sapiens, UniProt P33261); test: CYP2C19 inhibition, S-mephenytoin probe in human liver microsomes; conditions: S-mephenytoin 50 μM, 30 min; for activity at 30 min: human, human liver microsomes, pH 7.4, probe S-mephenytoin 50 μM, Residual activity (%) CYP2C19, HLM 0.5 mg/mL
Protocol: as §1, §2, §5

Sequence of CYP2C9 (P11712 whole entry): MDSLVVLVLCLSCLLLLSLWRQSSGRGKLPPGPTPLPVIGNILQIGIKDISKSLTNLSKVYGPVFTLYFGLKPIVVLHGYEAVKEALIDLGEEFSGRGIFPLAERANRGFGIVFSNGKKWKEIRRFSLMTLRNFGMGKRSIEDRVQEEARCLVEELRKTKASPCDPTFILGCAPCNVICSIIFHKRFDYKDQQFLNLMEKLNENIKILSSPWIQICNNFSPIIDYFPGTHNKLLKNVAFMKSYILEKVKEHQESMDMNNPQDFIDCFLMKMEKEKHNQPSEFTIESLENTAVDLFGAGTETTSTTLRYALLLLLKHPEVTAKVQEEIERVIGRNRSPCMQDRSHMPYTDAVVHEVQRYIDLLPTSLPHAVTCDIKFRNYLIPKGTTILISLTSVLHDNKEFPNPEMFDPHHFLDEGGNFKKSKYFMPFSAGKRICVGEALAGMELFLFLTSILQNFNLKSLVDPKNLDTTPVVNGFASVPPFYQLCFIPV
Sequence of CYP2D6 (P10635 whole entry): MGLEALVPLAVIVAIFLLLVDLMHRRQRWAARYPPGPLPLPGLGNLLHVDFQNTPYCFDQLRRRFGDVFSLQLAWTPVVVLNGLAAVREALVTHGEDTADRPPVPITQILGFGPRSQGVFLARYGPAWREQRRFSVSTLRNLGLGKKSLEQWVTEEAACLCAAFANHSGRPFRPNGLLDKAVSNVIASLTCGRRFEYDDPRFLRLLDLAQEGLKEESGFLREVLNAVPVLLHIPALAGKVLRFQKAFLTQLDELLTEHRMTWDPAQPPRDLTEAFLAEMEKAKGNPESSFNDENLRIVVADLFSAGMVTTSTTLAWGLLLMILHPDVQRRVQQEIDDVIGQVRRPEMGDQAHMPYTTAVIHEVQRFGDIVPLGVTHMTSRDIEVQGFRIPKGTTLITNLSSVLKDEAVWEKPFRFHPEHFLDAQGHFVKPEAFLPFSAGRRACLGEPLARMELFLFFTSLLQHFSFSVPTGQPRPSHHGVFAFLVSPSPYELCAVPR
Sequence of CYP2C19 (P33261 whole entry): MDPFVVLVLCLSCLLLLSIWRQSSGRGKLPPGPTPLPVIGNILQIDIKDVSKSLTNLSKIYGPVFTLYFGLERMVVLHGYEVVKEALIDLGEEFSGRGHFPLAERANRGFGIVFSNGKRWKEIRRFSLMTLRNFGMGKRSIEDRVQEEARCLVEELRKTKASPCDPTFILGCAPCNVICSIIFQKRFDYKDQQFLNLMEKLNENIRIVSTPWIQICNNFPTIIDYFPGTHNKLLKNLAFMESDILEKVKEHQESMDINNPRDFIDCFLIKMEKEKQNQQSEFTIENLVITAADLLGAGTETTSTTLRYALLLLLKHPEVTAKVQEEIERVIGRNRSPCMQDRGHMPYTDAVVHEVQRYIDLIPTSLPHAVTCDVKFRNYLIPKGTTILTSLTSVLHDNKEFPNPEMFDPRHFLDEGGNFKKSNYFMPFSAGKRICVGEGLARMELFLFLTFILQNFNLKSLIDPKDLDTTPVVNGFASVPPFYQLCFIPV
Sequence of CYP3A4 (P08684 whole entry): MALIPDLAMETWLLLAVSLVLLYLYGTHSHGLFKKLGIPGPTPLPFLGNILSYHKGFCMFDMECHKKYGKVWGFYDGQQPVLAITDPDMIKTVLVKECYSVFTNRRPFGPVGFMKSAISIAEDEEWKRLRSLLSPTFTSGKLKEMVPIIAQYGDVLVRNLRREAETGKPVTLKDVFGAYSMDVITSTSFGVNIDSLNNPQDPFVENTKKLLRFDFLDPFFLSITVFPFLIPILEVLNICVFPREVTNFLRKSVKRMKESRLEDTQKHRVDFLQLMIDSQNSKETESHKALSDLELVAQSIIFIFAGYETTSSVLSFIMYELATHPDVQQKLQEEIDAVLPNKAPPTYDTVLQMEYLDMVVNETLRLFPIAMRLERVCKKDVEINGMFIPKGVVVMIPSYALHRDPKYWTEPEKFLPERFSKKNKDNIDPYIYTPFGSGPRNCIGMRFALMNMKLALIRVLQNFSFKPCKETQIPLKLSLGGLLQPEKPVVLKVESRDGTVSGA

| Structure (SMILES) | activity at 30 min ([1]; phenacetin 40 μM, 30 min) [%] | activity at 30 min [2] [%] | activity at 30 min [3] [%] | activity at 30 min [4] [%] | activity at 30 min [5] [%] | activity at 30 min [6] [%] | activity at 30 min [7] [%] | IC50 [1] [µM] | Residual activity (%) CYP1A2 ([1]; HLM 0.5 mg/mL, phenacetin 40 μM, 30 min) [%] | Residual activity (%) CYP2D6 ([2]; HLM 0.5 mg/mL, dextromethorphan 5 μM, 30 min) [%] | Residual activity (%) CYP3A4 ([3]; HLM 0.5 mg/mL) [%] | Residual activity (%) CYP2A6 ([4]; HLM 0.5 mg/mL, coumarin 2 μM, 30 min) [%] | Residual activity (%) CYP2B6 ([5]; HLM 0.5 mg/mL) [%] | Residual activity (%) CYP2C9 ([6]; HLM 0.5 mg/mL) [%] | Residual activity (%) CYP2C19 ([7]; HLM 0.5 mg/mL) [%] |
| --- | --- | --- | --- | --- | --- | --- | --- | --- | --- | --- | --- | --- | --- | --- | --- |
| CC1(C)CCC2(C(=O)O)CCC3(C)C(=C2C1)C=CC1C2(C)CCC(O)C(C)(C)C2CCC13C (stereo not drawn) [Compound 36] | 81.9 ± 5.81 | 72.7 ± 10.4 | 55.4 ± 1.19 | 87 ± 1.46 | 88.6 ± 6.9 | 82.9 ± 2.75 | 84.38 ± 0.53 | – | – | – | – | – | – | – | – |
| CC1(C)CCC2(C(=O)O)CCC3(C)C(=CC(=O)C4C5(C)CCC(O)C(C)(C)C5CCC43C)C2C1 (stereo not drawn) [Compound 37] | 88 ± 3.49 | 104 ± 3.22 | 60.1 ± 3.57 | 104 ± 1.4 | 94.3 ± 3.45 | 94.8 ± 3.33 | 97.6 ± 4.86 | – | – | – | – | – | – | – | – |
| CC(CC(=O)CC(C)C1CC(O)C2(C)C3=C(C(=O)CC12C)C1(C)CCC(=O)C(C)(C)C1CC3)C(=O)O (stereo not drawn) [Compound 42] | 43.8 ± 4.18 | 103 ± 3.3 | 96.8 ± 4.2 | 83.7 ± 8.67 | 89.1 ± 3.71 | 62.8 ± 2.72 | 79.3 ± 0.38 | 21.4 ± 5.21 | – | – | – | – | – | – | – |
| CC(=O)OC1C(=O)C2=C(C(=O)CC3C(C)(C)C(=O)CCC23C)C2(C)C(=O)CC(C(C)CC(=O)CC(C)C(=O)O)C12C (stereo not drawn) [Compound 50] | – | – | – | – | – | – | – | – | 62.18±2.53 | 93.94±6.92 | 98.83±1.66 | 89.71±3.49 | 77.48±4.68 | 96.49±3.97 | 116.59±7.39 |
| CC(=CC(=O)CC(C)C(=O)O)C1CC(=O)C2(C)C3=C(C(=O)CC12C)C1(C)CCC(=O)C(C)(C)C1CC3O (stereo not drawn) [Compound 51] | 58 ± 2.08 | 89.5 ± 3.3 | 94.1 ± 7.18 | 86 ± 4.07 | 77.8 ± 7.96 | 99.8 ± 6.62 | 110 ± 3.54 | 38.6 ± 9.4 | – | – | – | – | – | – | – |
| CC(=O)OC1C(=O)C2=C(C(=O)CC3C2(C)CCC(O)C3(C)C)C2(C)C(=O)CC(C3(C)CCC(=O)O3)C12C (stereo not drawn) [Compound 56] | 56 ± 0.69 | 86.9 ± 1.32 | 82.8 ± 1.1 | 72.3 ± 1.11 | 84.1 ± 0.94 | 92.5 ± 0.99 | 109 ± 6.43 | 34.2 ± 6.9 | – | – | – | – | – | – | – |
